Test results: article PMC11203436, “Hell’s Gate Globin-I from Methylacidiphilum infernorum Displays a Unique Temperature-Independent pH Sensing Mechanism Utililized a Lipid-Induced Conformational Change” (International Journal of Molecular Sciences, 2024)
Values belong to the molecule of their own block, whether it stands above or below them.

Columns and labels:
[1] = target: T1, Hell's Gate globin-I (HGb-I) (Candidatus Methylacidiphilum infernorum, UniProt B3DUZ7); assay: stopped-flow CO binding kinetics; optical spectrum of ferrous-CO form
T1 construct: gene hmp
T1 sequence (B3DUZ7 1-133): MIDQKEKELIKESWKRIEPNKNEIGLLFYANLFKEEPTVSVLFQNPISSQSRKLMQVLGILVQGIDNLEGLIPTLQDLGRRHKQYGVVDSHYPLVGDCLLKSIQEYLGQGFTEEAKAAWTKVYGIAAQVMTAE

[2] = target: T1, Hell's Gate globin-I (HGb-I); assay: optical (absorbance) titration of ferric protein at pH […] °C; supported by EPR and stopped flow; type: binding
[3] = target: T1, Hell's Gate globin-I (HGb-I); assay: optical (absorbance) titration of ferric protein at pH […] °C; type: binding

SMILES: [C-]#[O+] [carbon monoxide]
stopped-flow CO binding kinetics; optical spectrum of ferrous-CO form [1]: In the absence of oleate, the CO binding to the hexacoordinate form is slow and reaches a plateau

Kd [2]: 0.73 µM
SMILES: CCCCCCCC/C=C\CCCCCCCC(=O)O [oleate]

Kd [3]: 9.88 µM
SMILES: CCCCCCCCCCCCCCCC(=O)O [palmitate]
